Laboratory results reported in US10004732B2 (Novartis AG, priority 2014, dated 2018).
pIC50: −log10 of the molar value. Read-outs that look alike come from different tables or passages of the source.

How the values were obtained:
Vps34 = Vps34 (Homo sapiens, UniProt Q8NEB9); assay: Kinase Glo Luminescent Kinase Assay (Kglo), assay C; assay type: biochemical; conditions: read-out: Assay C VPS34 IC50
PI 3-kinase beta [1] = molecular target: T1, PI 3-kinase beta (Homo sapiens, UniProt P42338); assay: Cellular assay I1, p-Akt (S473) in Rat-1 cells, Surefire format; assay type: cell-based; conditions: non-asterisked data: version I1 (Surefire format), Rat-1 cells; read-out: Assay I PI3Kβ IC50
Text: Cellular Assays for PI 3-Kinase Alpha (H1), Beta (I1) and Delta (J1): Surefire Format
AlphaScreen (Amplified Luminescent Proximity Homogeneous Assay, ALPHA, Perkin Elmer) is a non-radioactive bead-based proximity assay technology to study biomolecular interactions in a homogenous microtiter plate format. The brand name SureFire denotes AlphaScreen assays that are adapted to quantify the phosphorylation of endogenous cellular proteins in cell lysates, by using matched antibody pairs, which consist of an anti-phospho-kinase and an anti-kinase antibody. The assay allows characterization of kinase signaling in cells as well as measurement of kinase inhibitor effects.
Using Rat-1 cells stably expressing myr-HA-tagged versions of the human PI3Kdelta, PI3Kalpha, or PI3Kbeta p110 catalytic subunit isoforms, the assay was developed as a two-plate protocol in a 384-well format.
For compound testing, the cells were seeded at a density of 4000 (Rat-1_PI3Kdelta), 7500 (Rat-1_PI3Kalpha), or 6200 (Rat-1_PI3Kbeta) cells in 20 μl complete growth medium into cell culture treated 384-well plates and were grown at 37° C./5% CO2/90% humidity for 24 h. Shortly before compound transfer, the complete medium was removed, 30 μl assay buffer (DMEM high glucose, 1×MEM NEAA, 10 mM HEPES, 2 mM L-glutamine, 0.1% (w/v) BSA) was added and 10 μl of the compound predilutions were transferred to the cells.

[2] = tested on: IL-8-induced neutrophil shape change in human whole blood; assay: Whole blood neutrophil shape change assay (L); assay type: cell-based; conditions: IL-8, human whole blood, read-out: Assay L WBSC IC50
PI 3-kinase beta [3] = molecular target: T1, PI 3-kinase beta; assay: Kinase Glo Luminescent Kinase Assay (Kglo), assay B; assay type: biochemical; conditions: read-out: Assay B PI3Kβ IC50
Target sequence in this assay (P42338 whole entry): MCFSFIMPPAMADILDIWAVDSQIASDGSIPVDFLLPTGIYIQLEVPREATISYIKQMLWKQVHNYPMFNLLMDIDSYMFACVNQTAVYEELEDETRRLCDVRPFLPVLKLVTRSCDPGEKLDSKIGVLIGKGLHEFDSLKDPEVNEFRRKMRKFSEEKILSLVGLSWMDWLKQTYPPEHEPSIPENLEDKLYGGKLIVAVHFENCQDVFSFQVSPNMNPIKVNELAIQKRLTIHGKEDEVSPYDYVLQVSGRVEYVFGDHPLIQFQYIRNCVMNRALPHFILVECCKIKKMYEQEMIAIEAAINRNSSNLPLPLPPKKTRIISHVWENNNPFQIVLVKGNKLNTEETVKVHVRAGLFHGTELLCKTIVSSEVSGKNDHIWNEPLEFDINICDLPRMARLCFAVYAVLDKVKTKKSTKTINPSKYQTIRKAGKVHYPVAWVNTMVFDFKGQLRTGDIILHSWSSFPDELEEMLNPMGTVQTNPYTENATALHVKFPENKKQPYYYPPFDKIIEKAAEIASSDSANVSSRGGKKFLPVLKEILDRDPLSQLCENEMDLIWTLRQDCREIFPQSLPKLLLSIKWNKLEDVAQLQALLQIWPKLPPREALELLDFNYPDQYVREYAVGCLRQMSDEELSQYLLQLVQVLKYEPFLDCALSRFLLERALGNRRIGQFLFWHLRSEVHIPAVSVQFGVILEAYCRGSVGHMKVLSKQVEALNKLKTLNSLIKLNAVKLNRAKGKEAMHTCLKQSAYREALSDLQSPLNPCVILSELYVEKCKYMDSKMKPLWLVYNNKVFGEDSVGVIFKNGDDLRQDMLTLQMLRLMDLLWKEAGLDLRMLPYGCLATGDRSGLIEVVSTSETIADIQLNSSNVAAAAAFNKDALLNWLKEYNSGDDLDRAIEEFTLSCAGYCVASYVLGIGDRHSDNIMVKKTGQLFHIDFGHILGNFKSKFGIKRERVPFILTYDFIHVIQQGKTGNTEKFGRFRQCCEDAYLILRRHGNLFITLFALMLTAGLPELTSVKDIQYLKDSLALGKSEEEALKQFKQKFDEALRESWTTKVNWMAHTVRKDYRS
Target sequence in this assay (P27986 461-568 partner): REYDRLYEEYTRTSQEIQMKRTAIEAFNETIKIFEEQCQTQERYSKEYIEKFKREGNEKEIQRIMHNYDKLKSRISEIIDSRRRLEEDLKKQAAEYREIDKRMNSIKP

[4] = Microsomal clearance assay (M); conditions: intrinsic clearance in rat liver microsomes
Experimental: The experiments were performed in 96-well glass plates at 37° C. on an automated Tecan EVO platform. Test compounds at a concentration of 10 mM in pure DMSO were diluted 1:1000 in water to 10 μM. […] Reactions were initiated by the addition of 150 μL of a cofactor solution containing 2 mM NADPH.

PI 3-kinase gamma [5] = molecular target: T2, PI 3-kinase gamma (Homo sapiens, UniProt P48736); assay: Cellular U937 AKT assay K1 (MSD); assay type: cell-based; conditions: U937 cells, K1 format; read-out: Assay K1 PI3Kγ IC50
PI 3-kinase delta [6] = molecular target: T3, PI 3-kinase delta (Homo sapiens, UniProt O00329); assay: TR-FRET Adapta assay, assay F; conditions: read-out: Assay F PI3Kδ IC50
Target sequence in this assay (O00329 whole entry): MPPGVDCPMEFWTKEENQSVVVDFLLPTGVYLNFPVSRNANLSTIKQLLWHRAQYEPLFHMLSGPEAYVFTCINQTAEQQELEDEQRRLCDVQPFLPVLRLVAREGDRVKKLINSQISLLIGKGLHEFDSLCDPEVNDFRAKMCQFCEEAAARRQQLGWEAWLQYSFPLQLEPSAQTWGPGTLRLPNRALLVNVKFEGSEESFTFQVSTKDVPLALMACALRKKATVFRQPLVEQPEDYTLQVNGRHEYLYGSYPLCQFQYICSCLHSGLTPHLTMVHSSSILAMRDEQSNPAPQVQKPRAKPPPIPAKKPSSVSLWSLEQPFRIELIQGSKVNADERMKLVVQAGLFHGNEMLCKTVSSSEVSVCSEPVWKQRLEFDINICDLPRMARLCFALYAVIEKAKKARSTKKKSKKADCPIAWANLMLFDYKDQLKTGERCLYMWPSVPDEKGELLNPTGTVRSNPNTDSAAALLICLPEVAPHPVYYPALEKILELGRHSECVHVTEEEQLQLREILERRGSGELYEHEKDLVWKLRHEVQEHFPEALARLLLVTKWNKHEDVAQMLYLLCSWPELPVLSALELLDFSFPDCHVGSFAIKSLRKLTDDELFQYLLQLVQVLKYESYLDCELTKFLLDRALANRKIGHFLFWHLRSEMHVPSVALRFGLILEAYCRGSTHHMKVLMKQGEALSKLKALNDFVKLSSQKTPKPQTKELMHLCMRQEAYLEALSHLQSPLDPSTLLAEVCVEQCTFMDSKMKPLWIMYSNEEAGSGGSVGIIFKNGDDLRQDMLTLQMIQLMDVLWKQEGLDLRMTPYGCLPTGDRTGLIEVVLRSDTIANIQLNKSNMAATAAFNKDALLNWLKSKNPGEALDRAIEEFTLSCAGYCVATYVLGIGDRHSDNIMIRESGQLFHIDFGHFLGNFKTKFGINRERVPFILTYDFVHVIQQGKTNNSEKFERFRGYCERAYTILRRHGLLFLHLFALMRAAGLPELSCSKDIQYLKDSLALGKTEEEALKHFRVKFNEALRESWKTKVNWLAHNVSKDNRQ
Target sequence in this assay (P27986 461-568 partner): as the sequence (P27986 461-568 partner) above

PI 3-kinase gamma [7] = molecular target: T2, PI 3-kinase gamma; assay: TR-FRET Adapta assay, assay E; assay type: biochemical; conditions: read-out: Assay E PI3Kγ IC50
Experimental: TR-FRET Adapta Assay for PI 3-Kinase Gamma (E), PI 3-Kinase Delta (F)
The TR-FRET Adapta™ Universal Kinase Assay Kit was purchased from Invitrogen Corporation (Carlsbad/CA, USA) (Cat. No. PV5099).
PIK3CD substrate phosphatidylinositol (PI) was obtained from Invitrogen (vesicules consisting of 2 mM phosphatidylinositol (PI) in 50 mM HEPES pH7.5; Cat. No. PV5371). PIK3CG substrate phosphatidylinositol-4,5-bisphosphate (PIP(4,5)2 was obtained from Invitrogen (PIP2:PS large unilamellar vesicules consisting of 1 mM PIP2: 19 mM PS in 50 mM HEPES pH7.5, 3 mM MgCl2, 1 mM EGTA; Cat. No. PV5100).
Time-Resolved Fluorescence Resonance Energy Transfer (TR-FRET) is a technology based on energy transfer between two adjacent dyes, from an excited electron in one dye (the donor) to an electron of an adjacent dye (the acceptor) through resonance, then released as a photon. This energy transfer is detected by an increase in the fluorescence emission of the acceptor, and a decrease in the fluorescence emission of the donor. TR-FRET assays for protein kinases use a long-lifetime lanthanide Terbium or Europium chelates as the donor species which overcome interference from compound autofluorescence or light scatter from precipitated compounds, by introducing a delay after excitation by a flashlamp excitation source. Results are often expressed as a ratio of the intensities of the acceptor and donor fluorophores. The ratiometric nature of such a value corrects for differences in assay volumes between wells, as well as corrects for quenching effects due to colored compounds. The Adapta™ assay can be divided into two phases: a kinase reaction phase and an ADP detection phase. In the kinase reaction phase, all kinase reaction components are added to the well and the reaction is allowed to incubate for a set period of time specific for each kinase. […] In the presence of an inhibitor, the amount of ADP formed by the kinase reaction is reduced, and the resulting intact antibody-tracer interaction maintains a high TR-FRET signal.
50 nL of compound dilutions were dispensed onto white 384-well small volume polystyrene plate. Then 5 μL of either PI 3-kinase gamma or PI 3-kinase delta and lipid substrate (PI or PIP2:PS) followed by 5 μL of ATP (final assay volume 10 μL) are incubated at RT. The standard reaction buffer for the Adapta™ TR-FRET assay contained 10 mM Tris-HCl pH 7.5, 3 mM MgCl2, 50 mM NaCl, 1 mM DTT, 0.05% CHAPS 3-[(3-cholamidopropyl)dimethylammonio]-1-propanesulfonate).
Data are analyzed using Excel fit software or Graphpad Prism. IC50 values were derived by fitting a sigmoidal dose-response curve to a plot of assay readout over inhibitor concentration. All fits were performed with the program XLfit4 (ID Business Solutions, Guildford, UK). […] All fits were performed with the program XLfit4 (ID Business Solutions, Guildford, UK).

PI 3-kinase delta [8] = molecular target: T3, PI 3-kinase delta; assay: Cellular assay J1, p-Akt (S473) in Rat-1 cells, Surefire format; assay type: cell-based; conditions: non-asterisked data: version J1 (Surefire format), Rat-1 cells; read-out: Assay J PI3Kδ IC50
Target sequence in this assay (O00329 whole entry): as the sequence (O00329 whole entry) above
Target sequence in this assay (Q63787 whole entry partner): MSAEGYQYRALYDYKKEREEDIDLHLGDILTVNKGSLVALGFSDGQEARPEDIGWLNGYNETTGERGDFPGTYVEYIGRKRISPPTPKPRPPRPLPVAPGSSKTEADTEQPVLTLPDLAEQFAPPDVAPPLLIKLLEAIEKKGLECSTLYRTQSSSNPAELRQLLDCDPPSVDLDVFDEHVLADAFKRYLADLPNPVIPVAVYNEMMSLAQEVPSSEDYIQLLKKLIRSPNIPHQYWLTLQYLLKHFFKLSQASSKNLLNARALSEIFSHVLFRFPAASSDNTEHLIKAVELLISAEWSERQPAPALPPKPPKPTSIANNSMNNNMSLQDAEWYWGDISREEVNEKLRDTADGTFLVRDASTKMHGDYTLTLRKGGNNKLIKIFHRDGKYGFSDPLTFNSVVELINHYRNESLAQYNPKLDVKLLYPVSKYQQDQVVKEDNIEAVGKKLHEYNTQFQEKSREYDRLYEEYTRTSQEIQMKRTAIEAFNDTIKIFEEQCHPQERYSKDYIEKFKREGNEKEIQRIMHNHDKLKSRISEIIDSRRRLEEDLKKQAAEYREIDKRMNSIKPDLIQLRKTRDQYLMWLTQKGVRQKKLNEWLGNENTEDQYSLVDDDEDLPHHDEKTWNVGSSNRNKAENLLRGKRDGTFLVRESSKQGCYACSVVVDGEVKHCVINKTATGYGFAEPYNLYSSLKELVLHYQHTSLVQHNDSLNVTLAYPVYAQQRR

mTOR = mTOR (Homo sapiens, UniProt P42345); assay: Lanthascreen kinase binding assay, assay G; conditions: read-out: Assay G mTOR IC50
Experimental: Lanthascreen™ Kinase Binding Assay for mTOR (G)
Binding of an inhibitor to the kinase competes for binding with the tracer, resulting in a loss of FRET.
50 nL of compound dilutions were dispensed onto white 384-well small volume polystyrene plate.

PI 3-kinase alpha [9] = molecular target: T4, PI 3-kinase alpha (Homo sapiens, UniProt P42336); assay: Kinase Glo Luminescent Kinase Assay (Kglo), assay A; assay type: biochemical; conditions: read-out: Assay A PI3Kα IC50
Experimental: Kinase Glo Luminescent Kinase Assay (Kglo) for Pb 3-Kinase Alpha (A), Pb 3-Kinase Beta (B), Vps34 (C), Pb 4-Kinase Beta (D)
The Kinase Glo Luminescent Kinase Assay (Promega, Madison/Wis., USA) is a homogeneous HTS method of measuring kinase activity by quantifying the amount of ATP remaining in solution following a kinase reaction.
L-α-phosphatidylinositol (PI), provided as 10 mg/ml solution in methanol, was transferred into a glass tube and dried under a nitrogen beam. It was then resuspended in 3% OctylGlucoside (1-0-n-octyl-beta-D-glucopyranoside) by vortexing and stored at 4° C. 5 μL of a mix of PI/OctylGlucoside with the PI 3-kinase alpha and PI 3-kinase beta subtypes, or Vps34 or PI 4-kinase beta were added. Kinase reactions were started by the addition of 5 μl of an ATP-mix containing in a final volume 10 μL 10 mM TRIS-HCl pH 7.5, 3 mM MgCl2, 50 mM NaCl, 0.05% CHAPS, 1 mM DTT and 1 μM ATP at room temperature.
All fits were performed with the program XLfit4 (ID Business Solutions, Guildford, UK).

PI 4-kinase beta = PI 4-kinase beta (Homo sapiens, UniProt Q9UBF8); assay: Kinase Glo Luminescent Kinase Assay (Kglo), assay D; assay type: biochemical; conditions: read-out: Assay D PI4Kβ IC50
PI 3-kinase alpha [10] = molecular target: T4, PI 3-kinase alpha; assay: Cellular assay H1, p-Akt (S473) in Rat-1 cells, Surefire format; assay type: cell-based; conditions: non-asterisked data: version H1 (Surefire format), Rat-1 cells; read-out: Assay H PI3Kα IC50

Vps34, sequence (Q8NEB9 whole entry, species assumed): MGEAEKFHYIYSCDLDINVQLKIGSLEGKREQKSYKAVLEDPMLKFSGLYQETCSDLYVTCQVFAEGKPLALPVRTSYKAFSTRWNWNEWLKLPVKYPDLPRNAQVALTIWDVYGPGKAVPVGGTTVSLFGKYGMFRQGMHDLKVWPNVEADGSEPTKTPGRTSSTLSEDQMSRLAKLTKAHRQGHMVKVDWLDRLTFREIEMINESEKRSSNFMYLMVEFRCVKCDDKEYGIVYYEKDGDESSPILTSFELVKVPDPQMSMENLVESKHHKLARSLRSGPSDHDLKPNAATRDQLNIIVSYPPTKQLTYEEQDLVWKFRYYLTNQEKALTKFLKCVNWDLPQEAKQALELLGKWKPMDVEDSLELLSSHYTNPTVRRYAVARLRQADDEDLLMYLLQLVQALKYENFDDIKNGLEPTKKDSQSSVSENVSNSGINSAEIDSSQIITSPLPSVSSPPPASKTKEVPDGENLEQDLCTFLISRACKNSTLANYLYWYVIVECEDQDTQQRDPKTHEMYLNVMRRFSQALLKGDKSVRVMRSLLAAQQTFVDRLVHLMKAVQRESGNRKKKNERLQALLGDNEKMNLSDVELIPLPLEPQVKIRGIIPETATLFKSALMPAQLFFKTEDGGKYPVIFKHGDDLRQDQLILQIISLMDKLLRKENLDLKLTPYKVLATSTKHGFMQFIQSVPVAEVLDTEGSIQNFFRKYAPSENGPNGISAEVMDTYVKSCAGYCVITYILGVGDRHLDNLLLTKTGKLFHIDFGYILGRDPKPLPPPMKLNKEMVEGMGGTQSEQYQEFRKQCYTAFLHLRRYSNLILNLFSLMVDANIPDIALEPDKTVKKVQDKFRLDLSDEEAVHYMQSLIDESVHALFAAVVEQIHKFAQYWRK
T2 sequence (P48736 whole entry): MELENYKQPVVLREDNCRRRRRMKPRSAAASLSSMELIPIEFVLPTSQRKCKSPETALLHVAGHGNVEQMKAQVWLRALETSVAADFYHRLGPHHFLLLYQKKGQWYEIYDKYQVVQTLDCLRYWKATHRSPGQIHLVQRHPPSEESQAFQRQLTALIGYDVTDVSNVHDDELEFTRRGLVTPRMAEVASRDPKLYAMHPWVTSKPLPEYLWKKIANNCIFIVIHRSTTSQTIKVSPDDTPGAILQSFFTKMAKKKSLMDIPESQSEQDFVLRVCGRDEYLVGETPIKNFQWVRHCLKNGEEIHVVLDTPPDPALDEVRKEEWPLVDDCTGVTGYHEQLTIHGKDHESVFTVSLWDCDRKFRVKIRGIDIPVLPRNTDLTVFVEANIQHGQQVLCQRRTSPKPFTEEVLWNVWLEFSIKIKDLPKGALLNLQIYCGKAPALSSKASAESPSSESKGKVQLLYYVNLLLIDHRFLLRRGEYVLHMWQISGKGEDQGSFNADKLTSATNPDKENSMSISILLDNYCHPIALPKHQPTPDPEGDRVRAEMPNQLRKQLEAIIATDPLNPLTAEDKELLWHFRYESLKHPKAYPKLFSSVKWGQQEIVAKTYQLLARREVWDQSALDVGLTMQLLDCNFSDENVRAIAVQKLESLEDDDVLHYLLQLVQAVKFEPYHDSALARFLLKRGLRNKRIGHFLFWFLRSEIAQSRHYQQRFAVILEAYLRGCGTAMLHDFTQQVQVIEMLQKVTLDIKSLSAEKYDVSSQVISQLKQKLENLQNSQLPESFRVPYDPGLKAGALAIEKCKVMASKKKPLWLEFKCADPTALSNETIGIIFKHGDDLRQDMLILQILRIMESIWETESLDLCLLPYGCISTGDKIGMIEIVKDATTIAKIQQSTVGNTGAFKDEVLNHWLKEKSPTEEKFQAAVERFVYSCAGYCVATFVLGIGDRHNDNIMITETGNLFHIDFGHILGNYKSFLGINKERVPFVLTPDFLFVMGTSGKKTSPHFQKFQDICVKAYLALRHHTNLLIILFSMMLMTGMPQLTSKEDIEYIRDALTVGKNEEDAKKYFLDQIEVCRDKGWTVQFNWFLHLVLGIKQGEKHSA

| Compound | pIC50 (Vps34) | pIC50 (PI 3-kinase beta [1]) | pIC50 [2] | pIC50 (PI 3-kinase beta [3]) | Assay M RLM CI(int) [4] | pIC50 (PI 3-kinase gamma [5]) | pIC50 (PI 3-kinase delta [6]) | pIC50 (PI 3-kinase gamma [7]) | pIC50 (PI 3-kinase delta [8]) | pIC50 (mTOR) | pIC50 (PI 3-kinase alpha [9]) | pIC50 ([2]; Homo sapiens, Neutrophil) | pIC50 (PI 4-kinase beta) | pIC50 (PI 3-kinase alpha [10]) |
| --- | --- | --- | --- | --- | --- | --- | --- | --- | --- | --- | --- | --- | --- | --- |
| Cc1ccc(S(=O)(=O)NC2CC3(CC(O)C3)C2)cc1-c1cnc(N)c(-c2cn(C)nc2C)n1 (single isomer, unassigned) [Example 9a, (R)-3-[5-Amino-6-(1,3-dimethyl-1H-pyrazol-4-yl)-pyrazin-2-yl]-N-(6-hydroxy-spiro[3.3]hept-2-yl)-4-methyl-benzenesulfonamide or (S)-3-[5-Amino-6-(1,3-dimethyl-1H-pyrazol-4-yl)-pyrazin-2-yl]-N-(6-hydroxy-spiro[3.3]hept-2-yl)-4-methyl-benzenesulfonamide] | < 5.00 | < 5.00 | 6.49 | 6.27 | 34 µL/min/mg | 7.40 | 6.70 | 7.82 | 5.45 | 5.09 |  |  |  |  |
| Cc1ccc(S(=O)(=O)NCC2(O)CC2)cc1-c1cnc(N)c(-n2cncn2)n1 [Example 28, 3-(5-Amino-6-[1,2,4]triazol-1-yl-pyrazin-2-yl)-N-(1-hydroxy-cyclopropylmethyl)-4-methyl-benzenesulfonamide] | < 5.04 |  |  | 5.37 | 34 µL/min/mg | 6.55 | 6.25 | 7.59 |  | < 5.04 | 6.17 | 6.12 | 5.05 |  |
| Cc1ccc(S(=O)(=O)NCC(F)F)cc1-c1cnc(N)c(-n2cncn2)n1 [Example 34, 3-(5-Amino-6-[1,2,4]triazol-1-yl-pyrazin-2-yl)-N-(2,2-difluoro-ethyl)-4-methyl-benzenesulfonamide] | < 5.00 |  |  | 5.60 | 52 µL/min/mg | 6.86 | 5.54 | 7.13 |  | 5.60 | 6.15 | 6.09 | 5.42 |  |
| Cc1ccc(S(=O)(=O)NCC(=O)C(C)(C)C)cc1-c1cnc(N)c(-n2cncn2)n1 [Example 36, 3-(5-Amino-6-[1,2,4]triazol-1-yl-pyrazin-2-yl)-N-(3,3-dimethyl-2-oxo-butyl)-4-methyl-benzenesulfonamide] | < 5.00 |  |  | 6.07 | 710 µL/min/mg | 7.29 | 6.96 | 7.77 |  | 6.60 | 6.80 | 6.32 | 5.10 |  |
| Cc1cc(C)n(-c2nc(-c3cc(S(=O)(=O)NCC(C)(C)O)ccc3C)cnc2N)n1 [Example 48, 3-(5-Amino-6-(3,5-dimethyl-1H-pyrazol-1-yl)pyrazin-2-yl)-N-(2-hydroxy-2-methylpropyl)-4-methyl benzenesulfonamide] | < 5.00 |  |  | 5.14 | 59 µL/min/mg | 6.31 | 6.04 | 7.09 |  | < 5.00 | 5.59 | 5.82 | < 5.00 |  |
| Cc1ccc(S(=O)(=O)N[C@H]2CC[C@H](O)CC2)cc1-c1cnc(N)c(-c2cnn(C)c2)n1 [Example 58, Trans-3-(5-Amino-6-(1-methyl-1H-pyrazol-4-yl)pyrazin-2-yl)-N-(-4-hydroxycyclohexyl)-4-methylbenzenesulfonamide] | 5.51 |  |  | 5.53 | 14 µL/min/mg | 7.14 | 7.00 | 7.72 | 5.61 | < 5.04 | 6.31 | 6.41 | 5.23 | 5.07 |
| Cc1ccc(S(=O)(=O)NCCC(C)(C)O)cc1-c1cnc(N)c(-n2cccn2)n1 [Example 62, 3-(5-Amino-6-(1H-pyrazol-1-yl)pyrazin-2-yl)-N-(3-hydroxy-3-methylbutyl)-4-methylbenzenesulfonamide] | < 5.04 |  |  | 6.00 | 155 µL/min/mg | 6.96 | 6.68 | 7.25 | 6.01 | < 5.04 | 6.17 | 5.10 | 5.43 | 5.84 |
| Cc1ccc(S(=O)(=O)NCCC(C)(C)O)cc1-c1cnc(N)c(-c2ccnn2C)n1 [Example 77, 3-(5-Amino-6-(1-methyl-1H-pyrazol-5-yl)pyrazin-2-yl)-N-(3-hydroxy-3-methylbutyl)-4-methylbenzenesulfonamide] | < 5.04 |  |  | 5.38 | 45 µL/min/mg | 6.87 | 6.52 | 7.47 |  | 5.26 | 6.64 | 6.06 | < 5.04 |  |
| Cc1ccc(S(=O)(=O)NCC(C)(C)O)cc1-c1cnc(N)c(-c2cc(C3CC3)no2)n1 [Example 79, 3-(5-Amino-6-(3-cyclopropylisoxazol-5-yl)pyrazin-2-yl)-N-(2-hydroxy-2-methylpropyl)-4-methylbenzenesulfonamide] | 5.12 |  |  | 5.92 | 63 µL/min/mg | 7.28 | 6.43 | 7.66 |  | 5.19 | 6.55 | 5.49 | 5.41 |  |
| Cc1csc(-c2nc(-c3cc(S(=O)(=O)NCC(C)(C)O)ccc3C)cnc2N)n1 [Example 80, 3-(5-Amino-6-(4-methylthiazol-2-yl)pyrazin-2-yl)-N-(2-hydroxy-2-methylpropyl)-4-methylbenzenesulfonamide] | < 5.00 |  |  | 5.77 | 106 µL/min/mg | 7.01 | 6.40 | 7.11 |  | < 5.00 | 6.60 | 5.54 | 5.34 |  |
| Cc1ccc(S(=O)(=O)NCC(C)(C)O)cc1-c1cnc(N)c(-c2nc(C3CC3)no2)n1 [Example 95, 3-(5-Amino-6-(3-cyclopropyl-1,2,4-oxadiazol-5-yl)pyrazin-2-yl)-N-(2-hydroxy-2-methylpropyl)-4-methylbenzenesulfonamide] | < 5.02 |  |  | 5.39 | 53 µL/min/mg | 6.58 | 6.14 | 7.44 |  | 5.13 | 6.05 | 5.80 | < 5.02 |  |
| Cc1ccc(S(=O)(=O)NC2(CO)CC2)cc1-c1cnc(N)c(-n2cncn2)n1 [Example 98, 3-(5-Amino-6-(1H-1,2,4-triazol-1-yl)pyrazin-2-yl)-N-(1-(hydroxymethyl)cyclopropyl)-4-methylbenzenesulfonamide] | < 5.04 |  |  | 5.85 | 31 µL/min/mg | 6.70 | 6.51 | 7.42 |  | < 5.04 | 5.77 | 5.38 | 5.60 |  |
| Cc1ccc(S(=O)(=O)NCC(C)(C)CO)cc1-c1cnc(N)c(-c2cc(C3CC3)no2)n1 [Example 99, 3-(5-Amino-6-(3-cyclopropylisoxazol-5-yl)pyrazin-2-yl)-N-(3-hydroxy-2,2-dimethylpropyl)-4-methylbenzenesulfonamide] | 5.53 |  |  | 5.78 | 74 µL/min/mg | 7.23 | 6.85 | 7.85 |  | 5.31 | 6.13 | 5.45 | 5.57 |  |
| Cc1ccc(S(=O)(=O)NCCC(C)(C)O)cc1-c1cnc(N)c(-c2ccc(CO)s2)n1 [Example 119.35] | < 5.04 |  |  | 6.03 | 78 µL/min/mg | 7.74 | 7.15 | 7.89 |  | 5.41 | 7.10 | 5.99 | 6.13 |  |
| Cc1ccc(S(=O)(=O)NCCC(C)(C)O)cc1-c1cnc(N)c(-c2cc[nH]n2)n1 [Example 119.42] | < 5.04 |  |  | 5.63 | 41 µL/min/mg | 6.70 | 6.44 | 7.16 |  | < 5.04 | 6.15 | 5.65 | 6.06 |  |
| Cc1ccc(-c2nc(-c3cc(S(=O)(=O)NCCC(C)(C)O)ccc3C)cnc2N)s1 [Example 119.44] | < 5.04 |  |  | 5.86 | 137 µL/min/mg | 7.38 | 7.40 | 7.00 |  | 5.40 | 6.92 | 5.15 | 6.12 |  |
